In data set [1] the test system is scopolamine memory acquired disorder model of mice. Put plainly: Morris water maze, orientation navigation test. As to conditions: 0.1 mg/kg. The format is in vivo. On the procedure:
(§1) Mice were randomly divided into 5 groups evenly, namely, normal control group, model group, low dosage group, high dosage group, positive control drug Huperzine A group (0.1 mg/kg). The mice were intragastrically administered once daily (0.2 mL/10 g). After 30 consecutive days, except the normal control group, the memory acquired disorder model of mice was replicated respectively with scopolamine, and the learning performance of mice was determined with the Morris water maze test (scopolamine-induced orientation navigation and spatial memory experiment).
(§2) In accordance with technical requirements including “technical specifications of health food inspection and evaluation”, the dosage was calculated by conversion of the intended clinical daily dosage on the basis of the body surface area. When orally administered to mice, low and high dosages were arranged for each sample, respectively, which correspond to about 10 and 20 times of intended daily dosage for adults. Namely: low dosage group (1.3 g/kg), high dosage group (2.6 g/kg).
(§3) As for the positive control drug Huperzine A, the clinical adult dosage is about 0.4 mg/day, and the dosage for mice is 0.06 mg/kg, which is calculated by conversion on the basis of the body surface area. 0.1 mg/kg was used in the present experiment.
(§4) Morris water maze test was carried out according to the method in references. The orientation navigation test was started from the 25th day, and lasted for 4 consecutive days. The time of finding the platform of mice within 90 s (the escape latency), swimming distance, the swimming time proportion in the quadrant of the original platform, times of crossing the location of the original platform (i.e., shuttle times), and the time of first arrival at the original platform were recorded.
(§5) Mice were randomly divided into 5 groups, namely, normal control group, model group, low dosage group (1.3 g/kg), high dosage group (2.6 g/kg), positive control drug Huperzine A group (0.1 mg/kg). The mice were intragastrically administered once daily (0.2 mL/10 g). After 30 consecutive days, except the normal control group, the memory acquired disorder model of mice was replicated respectively with scopolamine, and the learning performance of mice was determined with the Morris water maze test (scopolamine-induced orientation navigation and spatial memory experiment).
(§6) In this example, respective groups of animals were adaptively fed for 3 days before intragastrical administration. The normal control group and model control group were intragastrically administered once daily with equal volume of 0.5% CMCNA, respectively. The administration was carried out with a volume of 0.2 mL/10 g body weight for 30 consecutive days. Morris water maze test was carried out according to the method in literatures. The orientation navigation test was started from the 25th day, and lasted for 4 days. The time of finding the platform of mice within 90 s (the escape latency), swimming distance, the swimming time proportion in the quadrant of the original platform, times of crossing the location of the original platform (i.e., shuttle times), and the time of first arrival at the original platform were recorded.

The subject of data set [2] is scopolamine hydrobromide-induced mice memory acquired disorder model. Put plainly: Morris water maze, space exploration test. Type of data set: in vivo. As to conditions: 0.1 mg/kg. On the procedure: as §1, §2, §3, §4, §5, §6
Data set [3] has as its system scopolamine hydrobromide induced memory acquired disorder in mice. The data set is described as follows: Step-down test. As to conditions: 0.1 mg/kg. The format is in vivo, Kunming mice. On the procedure:
Mice were randomly divided into 5 groups, namely, normal control group, model group, low dosage group, high dosage group, positive control drug Huperzine A group (0.1 mg/kg). The mice were intragastrically administered once daily (0.2 mL/10 g). After 30 consecutive days, except the normal control group, the memory acquired disorder model of mice was replicated respectively with […] of scopolamine hydrobromide, and the learning performance of mice was determined with the step-down test.
as §2
The time of the first jumping of mice (i.e., latency) and the times of jumping of mice within 5 minutes (i.e., errors times) were tested and recorded with jumping apparatus, and the latency and error times were used as the investigation indexes of the experiment.
60 screened healthy adult Kunming mice were used, with body weight (20-24) g, male, 12 […] in each group. Mice were randomly divided into 5 groups, namely, normal control group (C), model group (M), low dosage group (1.3 g/kg), high dosage (2.6 g/kg), positive control drug Huperzine A group (0.1 mg/kg). Except that the normal control group and model group were intragastrically administered with 0.5% CMCNA (0.2 mL/10 g), other groups were intragastrically administered with corresponding drugs once daily for 30 consecutive days. Training was started 1 h after administration in the morning on day 30. Except the normal control group, the memory acquired disorder model of mice was replicated respectively with 2 mg/kg scopolamine hydrobromide 20 minutes before training. Each group was administered in parallel, and the learning performance of mice was determined by step-down test. […]
(1) adaptive period: the animals were placed on the platform, at that time the electric fence was not energized, the latency of jumping down the platform was recorded, the animals were allowed to freely explore 10 s in the test box after jumping down the platform, and were then returned to the cage; […]
The learning performance was tested after 24 h. The time of the first jumping of mice (i.e., latency) and the times of jumping of mice within 5 minutes (i.e., errors times) were tested and recorded with jumping apparatus, and the latency and error times were used as the investigation indexes of the experiment.

For data set [4] the following is noted: clinical use as cholinesterase inhibitor; cited from earlier work.

Consider one molecule from patent publication US10376552B2, “Memory improving composition comprising arillus longan, semen nelumbinis, poria and semen juglandis” (priority 2015, dated 2019).

As for `C/C=C1\[C@H]2C=C(C)C[C@]1(N)c1ccc(=O)[nH]c1C2` [Huperzine A], in data set [1] (Day 1), the swimming distance was determined as 892.9 ± 226.6 cm and the swimming latency came to 68.3 ± 15.6 s. In data set [1] (Day 2), this molecule gave a swimming distance of 747.2 ± 93.5 cm and a swimming latency of 59.1 ± 13.8 s. In addition, in data set [1] (Day 3), the swimming distance was 683.3 ± 112.8 cm and the swimming latency came out at 56.3 ± 13.1 s. In data set [1] (Day 4), the swimming distance is listed as 669.6 ± 128.3 cm and the swimming latency is listed as 48.8 ± 11.1 s. Moreover, in data set [2], the Shuttle times stood at 2.2 ± 0.5, the “Time proportion of crossing the original quadrant” value stood at 22.6 ± 7.9% and the “time of first arrival at the platform” value is recorded as 27.0 ± 12.1 s. Besides, in data set [2] (p<0.05), the “time of first arrival at the platform” value was “significantly prolonging” and the “times of crossing the location of the original platform” value was “significantly decreased”. Also, the Latency in data set [3] came out at 146.20 ± 99.97 s. Further, in data set [3] (p<0.05), the “error times compared with the model group” value is recorded as “significantly reduced” and the “latency compared with the model group” value is “significantly prolonged”. This molecule also displayed an Error times in data set [3] (within 5 minutes) of 1.00 ± 0.82. For the same molecule, the side-effects after ingestion result in data set [4] was “nausea, dizziness, sweating, abdominal pain, and blurred vision”.
